{"source": "patent US20240269139A1", "about": "“COMPOUNDS FOR TARGETED PROTEIN DEGRADATION OF KINASES” (DANA-FARBER CANCER INSTITUTE, INC., priority 2020, published 2024)", "format_in_all_cases": "cell-based", "key": {"[1]": {"biological_target": "T1, protein kinases (human kinome) (Homo sapiens, UniProt O14965)", "T1 sequence (O14965 1-403)": "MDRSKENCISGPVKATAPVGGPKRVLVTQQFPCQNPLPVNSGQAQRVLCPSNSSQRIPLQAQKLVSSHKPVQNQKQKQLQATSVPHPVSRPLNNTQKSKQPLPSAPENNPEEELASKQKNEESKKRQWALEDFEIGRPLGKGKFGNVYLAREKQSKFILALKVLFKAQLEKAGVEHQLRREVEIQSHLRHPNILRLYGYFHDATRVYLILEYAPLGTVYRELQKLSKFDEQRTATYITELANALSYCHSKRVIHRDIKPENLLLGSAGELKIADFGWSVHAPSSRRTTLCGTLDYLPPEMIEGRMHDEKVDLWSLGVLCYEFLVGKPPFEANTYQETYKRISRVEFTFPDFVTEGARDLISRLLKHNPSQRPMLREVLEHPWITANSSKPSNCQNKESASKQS"}, "[2]": {"biological_target": "protein kinases (human kinome) (Homo sapiens, UniProt Q9H0K1)", "sequence (Q9H0K1 whole entry)": "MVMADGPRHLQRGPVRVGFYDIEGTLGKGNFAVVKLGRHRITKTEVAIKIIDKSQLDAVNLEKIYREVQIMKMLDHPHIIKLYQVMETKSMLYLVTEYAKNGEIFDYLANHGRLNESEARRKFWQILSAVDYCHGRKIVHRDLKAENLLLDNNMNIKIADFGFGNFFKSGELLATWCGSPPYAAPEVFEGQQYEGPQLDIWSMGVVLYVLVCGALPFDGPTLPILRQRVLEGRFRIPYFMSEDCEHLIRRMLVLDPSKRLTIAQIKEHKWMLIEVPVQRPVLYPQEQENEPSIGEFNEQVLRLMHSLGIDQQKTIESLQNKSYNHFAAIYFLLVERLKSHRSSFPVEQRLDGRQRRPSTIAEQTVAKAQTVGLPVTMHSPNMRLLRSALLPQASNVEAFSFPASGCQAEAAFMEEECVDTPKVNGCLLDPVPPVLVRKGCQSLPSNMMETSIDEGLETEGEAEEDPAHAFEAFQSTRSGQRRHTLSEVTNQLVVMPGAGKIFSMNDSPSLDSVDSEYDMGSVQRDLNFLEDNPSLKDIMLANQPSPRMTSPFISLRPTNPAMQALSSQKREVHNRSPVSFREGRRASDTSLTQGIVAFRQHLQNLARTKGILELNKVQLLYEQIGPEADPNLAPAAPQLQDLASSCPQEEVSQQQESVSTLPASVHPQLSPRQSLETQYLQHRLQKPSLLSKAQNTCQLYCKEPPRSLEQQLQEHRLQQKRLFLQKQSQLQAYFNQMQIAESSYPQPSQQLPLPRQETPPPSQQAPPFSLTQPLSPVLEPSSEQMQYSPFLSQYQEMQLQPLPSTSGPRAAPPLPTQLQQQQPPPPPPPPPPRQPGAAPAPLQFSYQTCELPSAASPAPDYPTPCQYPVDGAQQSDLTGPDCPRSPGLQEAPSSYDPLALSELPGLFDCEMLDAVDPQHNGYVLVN", "settings": "for logFC of SIK2: Accession Q9H0K1; for logFC SIK2 (Q9H0K1): direction of change down"}, "[3]": {"biological_target": "T2, protein kinases (human kinome) (Homo sapiens, UniProt Q9NYY8)", "T2 sequence (Q9NYY8 1-710)": "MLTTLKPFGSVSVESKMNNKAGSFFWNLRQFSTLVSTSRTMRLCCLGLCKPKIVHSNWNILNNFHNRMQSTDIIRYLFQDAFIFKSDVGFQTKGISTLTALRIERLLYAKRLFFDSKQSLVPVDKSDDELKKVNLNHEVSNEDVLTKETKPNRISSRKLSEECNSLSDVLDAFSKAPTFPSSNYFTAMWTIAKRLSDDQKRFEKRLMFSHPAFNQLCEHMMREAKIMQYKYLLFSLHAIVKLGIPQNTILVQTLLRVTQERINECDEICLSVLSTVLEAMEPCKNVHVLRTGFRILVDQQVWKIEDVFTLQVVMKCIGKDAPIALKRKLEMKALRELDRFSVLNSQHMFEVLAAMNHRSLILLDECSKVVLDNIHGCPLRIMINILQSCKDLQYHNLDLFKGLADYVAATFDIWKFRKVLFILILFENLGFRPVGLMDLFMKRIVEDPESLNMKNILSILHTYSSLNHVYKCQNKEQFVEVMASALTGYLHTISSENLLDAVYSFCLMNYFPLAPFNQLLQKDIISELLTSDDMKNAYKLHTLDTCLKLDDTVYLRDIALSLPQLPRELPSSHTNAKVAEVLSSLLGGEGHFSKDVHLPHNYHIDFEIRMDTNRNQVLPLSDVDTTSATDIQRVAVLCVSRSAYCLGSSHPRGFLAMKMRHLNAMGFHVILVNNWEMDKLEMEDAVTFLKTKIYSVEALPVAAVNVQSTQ", "settings": "Experiment wp016, 1 uM; direction down"}, "[4]": {"tested_on": "protein kinases (human kinome)", "settings": "for logFC ABL1: ABL1 (P00519-2); for logFC of SRC: Accession P12931-2; for logFC CDK12: Accession Q9NYV4-2"}, "[5]": {"settings": "AURKB Q96GD4-5, experiment wp103"}, "[6]": {"settings": "AURKB Q96GD4-5, experiment wp105"}, "[7]": {"settings": "AURKB Q96GD4-5, experiment wp107"}, "[8]": {"settings": "AURKB Q96GD4-5, experiment wp133, 1 hr"}, "[9]": {"settings": "AURKB Q96GD4-5, experiment wp133, 2 hr"}, "[10]": {"settings": "AURKB Q96GD4-5, experiment wp133, 4 hr"}}, "note": "Read-outs that look alike come from different tables or passages of the source.", "data": [{"smiles": "CC(C)S(=O)(=O)c1ccccc1Nc1nc(Nc2ccc(N3CCN(CCOCCNC(=O)CNc4cccc5c4C(=O)N(C4CCC(=O)NC4=O)C5=O)CC3)cc2)ncc1Cl", "note": "(stereo not shown) [SK.3.91]", "values": [{"measurement": "logFC AURKA (O14965)", "setting": "[1]; Experiment wp160, 2 hr", "value": "−0.8456"}, {"measurement": "logFC AURKA (O14965)", "setting": "[1]; Experiment wp172", "value": "−2.048"}, {"measurement": "logFC AURKA (O14965)", "setting": "[1]; experiment wp016", "value": "−1.908"}, {"measurement": "logFC AURKA (O14965)", "setting": "[1]; experiment wp016, 1 uM", "value": "−3.024"}, {"measurement": "logFC AURKA (O14965)", "setting": "[1]; experiment wp103", "value": "−1.587"}, {"measurement": "logFC AURKA (O14965)", "setting": "[1]; experiment wp105", "value": "−1.837"}, {"measurement": "logFC AURKA (O14965)", "setting": "[1]; experiment wp107", "value": "−3.069"}, {"measurement": "logFC AURKA (O14965)", "setting": "[1]; experiment wp114", "value": "−1.228"}, {"measurement": "logFC AURKA (O14965)", "setting": "[1]; experiment wp133, 1 hr", "value": "−1.329"}, {"measurement": "logFC AURKA (O14965)", "setting": "[1]; experiment wp133, 2 hr", "value": "−2.092"}, {"measurement": "logFC AURKA (O14965)", "setting": "[1]; experiment wp133, 4 hr", "value": "−3.745"}, {"measurement": "logFC AURKA (O14965)", "setting": "[1]; experiment wp160, 1 hr", "value": "−0.547"}, {"measurement": "logFC AURKA (O14965)", "setting": "[1]; experiment wp160, 4 hr", "value": "−1.391"}, {"measurement": "logFC of SIK2", "setting": "[2]; experiment wp105", "value": "−0.5386"}, {"measurement": "logFC of SIK2", "setting": "[2]; experiment wp107", "value": "−1.568"}, {"measurement": "logFC of SIK2", "setting": "[2]; experiment wp114", "value": "−0.5757"}, {"measurement": "logFC of SIK2", "setting": "[2]; experiment wp133, 2 hr", "value": "−0.4938"}, {"measurement": "logFC of SIK2", "setting": "[2]; experiment wp133, 4 hr", "value": "−1.035"}, {"measurement": "logFC of SIK2", "setting": "[2]; experiment wp160, 2 hr", "value": "−0.5413"}, {"measurement": "logFC of SIK2", "setting": "[2]; experiment wp160, 4 hr", "value": "−0.8364"}, {"measurement": "logFC SIK2 (Q9H0K1)", "setting": "[2]; Experiment wp105", "value": "−0.5386"}, {"measurement": "logFC SIK2 (Q9H0K1)", "setting": "[2]; Experiment wp114", "value": "−0.5757"}, {"measurement": "logFC SIK2 (Q9H0K1)", "setting": "[2]; experiment wp107", "value": "−1.568"}, {"measurement": "logFC SIK2 (Q9H0K1)", "setting": "[2]; experiment wp133, 2 hr", "value": "−0.4938"}, {"measurement": "logFC SIK2 (Q9H0K1)", "setting": "[2]; experiment wp133, 4 hr", "value": "−1.035"}, {"measurement": "logFC SIK2 (Q9H0K1)", "setting": "[2]; experiment wp160, 2 hr", "value": "−0.5413"}, {"measurement": "logFC SIK2 (Q9H0K1)", "setting": "[2]; experiment wp160, 4 hr", "value": "−0.8364"}, {"measurement": "logFC FASTKD2 (Q9NYY8)", "setting": "[3]", "value": "−0.4507"}, {"measurement": "logFC ABL1", "setting": "[4]; experiment wp016, 1 uM", "value": "−0.3875"}, {"measurement": "logFC ABL1", "setting": "[4]; experiment wp105", "value": "−0.333"}, {"measurement": "logFC ABL1", "setting": "[4]; experiment wp107", "value": "−0.4711"}, {"measurement": "logFC ABL1", "setting": "[4]; experiment wp133, 4 hr", "value": "−0.3801"}, {"measurement": "logFC", "setting": "[4]; [5]", "value": "−0.3966"}, {"measurement": "logFC AURKB", "setting": "[4]; [5]", "value": "−0.3966"}, {"measurement": "logFC", "setting": "[4]; [6]", "value": "−0.7004"}, {"measurement": "logFC AURKB", "setting": "[4]; [6]", "value": "−0.7004"}, {"measurement": "logFC", "setting": "[4]; [7]", "value": "−0.443"}, {"measurement": "logFC AURKB", "setting": "[4]; [7]", "value": "−0.443"}, {"measurement": "logFC", "setting": "[4]; [8]", "value": "−0.4923"}, {"measurement": "logFC AURKB", "setting": "[4]; [8]", "value": "−0.4923"}, {"measurement": "logFC", "setting": "[4]; [9]", "value": "−0.5333"}, {"measurement": "logFC AURKB", "setting": "[4]; [9]", "value": "−0.5333"}, {"measurement": "logFC", "setting": "[4]; [10]", "value": "−0.8007"}, {"measurement": "logFC AURKB", "setting": "[4]; [10]", "value": "−0.8007"}, {"measurement": "logFC BUB1B", "setting": "[4]; Accession O60566-3, experiment wp016, 1 uM, direction down", "value": "−0.4685"}, {"measurement": "logFC BUB1B", "setting": "[4]; Accession O60566-3, experiment wp103, direction down", "value": "−0.3983"}, {"measurement": "logFC BUB1B", "setting": "[4]; Accession O60566-3, experiment wp107, direction down", "value": "−0.5037"}, {"measurement": "logFC BUB1B", "setting": "[4]; Accession O60566-3, experiment wp133, 1 hr, direction down", "value": "−0.4083"}, {"measurement": "logFC BUB1B", "setting": "[4]; Accession O60566-3, experiment wp133, 2 hr, direction down", "value": "−0.4195"}, {"measurement": "logFC BUB1B", "setting": "[4]; Accession O60566-3, experiment wp133, 4 hr, direction down", "value": "−0.5871"}, {"measurement": "logFC of SRC", "setting": "[4]; experiment wp016", "value": "−0.3847"}, {"measurement": "logFC of SRC", "setting": "[4]; experiment wp016, 1 uM", "value": "−0.8428"}, {"measurement": "logFC of SRC", "setting": "[4]; experiment wp103", "value": "−0.5004"}, {"measurement": "logFC of SRC", "setting": "[4]; experiment wp105", "value": "−0.3464"}, {"measurement": "logFC of SRC", "setting": "[4]; experiment wp107", "value": "−0.7782"}, {"measurement": "logFC of SRC", "setting": "[4]; experiment wp133, 4 hr", "value": "−0.6408"}, {"measurement": "logFC CSNK1D", "setting": "[4]; Accession P48730-2, experiment wp114, direction down", "value": "−0.3991"}, {"measurement": "logFC CSNK1D", "setting": "[4]; Accession P48730-2, experiment wp160, 4 hr, direction down", "value": "−0.3373"}, {"measurement": "logFC CDK12", "setting": "[4]; experiment wp107", "value": "−1.042"}, {"measurement": "logFC CDK12", "setting": "[4]; experiment wp160, 2 hr", "value": "−0.4558"}, {"measurement": "logFC CDK12", "setting": "[4]; experiment wp160, 4 hr", "value": "−0.8448"}, {"measurement": "logFC BUB1B", "setting": "[4]; BUB1B (O60566-3), experiment wp016, 1 uM", "value": "−0.4685"}, {"measurement": "logFC BUB1B", "setting": "[4]; BUB1B (O60566-3), experiment wp103", "value": "−0.3983"}, {"measurement": "logFC BUB1B", "setting": "[4]; BUB1B (O60566-3), experiment wp107", "value": "−0.5037"}, {"measurement": "logFC BUB1B", "setting": "[4]; BUB1B (O60566-3), experiment wp133, 1 hr", "value": "−0.4083"}, {"measurement": "logFC BUB1B", "setting": "[4]; BUB1B (O60566-3), experiment wp133, 2 hr", "value": "−0.4195"}, {"measurement": "logFC BUB1B", "setting": "[4]; BUB1B (O60566-3), experiment wp133, 4 hr", "value": "−0.5871"}, {"measurement": "logFC", "setting": "[4]; CDK9 (P50750-2) protein abundance, degrader vs DMSO, 1 uM, down", "value": "−1.356"}, {"measurement": "logFC", "setting": "[4]; CDK9 (P50750-2) protein abundance, degrader vs DMSO, 2 hr, down", "value": "−0.3971"}, {"measurement": "logFC", "setting": "[4]; CDK9 (P50750-2) protein abundance, degrader vs DMSO, 4 hr, down", "value": "−1.037"}, {"measurement": "logFC", "setting": "[4]; CDK18 (Q07002-3), experiment wp105", "value": "−1.233"}, {"measurement": "logFC", "setting": "[4]; CDK18 (Q07002-3), experiment wp114", "value": "−0.8295"}, {"measurement": "logFC CSNK1D", "setting": "[4]; CSNK1D P48730-2, experiment wp114", "value": "−0.3991"}, {"measurement": "logFC CSNK1D", "setting": "[4]; CSNK1D P48730-2, experiment wp160, 4 hr", "value": "−0.3373"}, {"measurement": "logFC PRKAA1 (Q13131-2)", "setting": "[4]; Experiment wp016, 1 uM, direction down", "value": "−0.7977"}, {"measurement": "logFC PRKAA1 (Q13131-2)", "setting": "[4]; Experiment wp016, direction down", "value": "−0.4914"}]}]}
